Laboratory results from publication PMC10923054, “Antiplasmodial peptaibols act through membrane directed mechanisms” (Cell Chemical Biology, 2024).
Square brackets hold non-standard residues; d marks the D form. Peptide text beside a SMILES is read from it. Phe(ol) = N[C@H](CO)Cc1ccccc1; Leu(ol) = CC(C)C[C@H](N)CO; dIva = CC[C@@](C)(N)C(=O)O; Aib = CC(C)(N)C(=O)O

Assays:
[1] = test system: P. falciparum asexual blood stage parasites grown in 10% human serum; test: Antiplasmodial activity with serum media; format: cell-based; details: RPMI with 10% human serum, maintained minimum 2 weeks; mean ± SEM from 3 biological replicates
Description: Asexual blood stage parasites grown in the Chakrabarti laboratory were cultured based on a protocol by Trager and Jensen[57] with some modifications.[35] […] For comparison screening using serum vs Albumax II, culture media was changed from RPMI with 0.5% Albumax II to RPMI with 10% human serum and maintained for a minimum of 2 weeks prior to assay use.
(§1) Inhibitor EC50 determination in 3D7 and Dd2 was performed as discussed in,[35] based on established protocols.[60] Assays utilized asynchronous culture at 1% parasitemia, 1% hematocrit. Culture was incubated with compound dilutions for 72 h followed by freezing at −80°C to promote lysis, then thawing and incubation for 45 min–1 h with 1× SYBR Green I in a lysis buffer (20 mM Tris-HCL, 0.08% saponin, 5 mM EDTA, and 0.8% Triton X-100). Fluorescence was read 485 nm excitation, 530 nm emission on a Synergy Neo2 multimode reader (BioTek Winsooki, VT) and EC50 curves were generated using CDD Vault (https://www.collaborativedrug.com/).

[2] = test system: P. falciparum 3D7; test: Phenotypic screen: asexual blood stage EC50 determination (SYBR Green I); format: cell-based; details: CQ sensitive line, asynchronous culture, 72 h, mean ± SEM, biological triplicate
Description: Asexual blood stage parasites grown in the Chakrabarti laboratory were cultured based on a protocol by Trager and Jensen[57] with some modifications.[35] Culture was maintained at 4% hematocrit with human A+ whole blood obtained from the Florida OneBlood, in RPMI 1640 supplemented with 25 mM HEPES pH 7.4, 26 mM NaHCO3, 2% dextrose, 15 mg/L hypoxanthine, 25 mg/L gentamycin, and 0.5% Albumax II. Incubator conditions remained at 37°C and 5% CO2, 5% O2, 90% N2, or 95% air. For comparison screening using serum vs Albumax II, culture media was changed from RPMI with 0.5% Albumax II to RPMI with 10% human serum and maintained for a minimum of 2 weeks prior to assay use.
as §1

[3] = test system: PfMDR1 cKD parasite line; test: MDR1 compound susceptibility assay (Renilla luciferase); as to pfMDR1 cKD Sensitivity: key: -: A '–' indicates a negative finding; a single '+' indicates a positive finding; a double '++' indicates a strong positive finding; format: cell-based, P. falciparum; details: for pfMDR1 cKD Sensitivity: Figure 7A summary / graphical abstract; for shift in sensitivity upon PfMDR1 knockdown: with (0.5 μM) vs without aTc, 72 h, luminescence
Source text: A conditional knockdown parasite line was generated for the P. falciparum multi-drug resistance 1 (MDR1; PF3D7_0523000) following previously described procedures.[84]^,[85] The native PfMDR1 locus was engineered using CRISPR/SpCas9 to afford transcriptional fusion of 10 tandem TetR-DOZI binding aptamers in the 3′UTR for anhydrotetracycline (aTc)-dependent regulation of PfMDR1 expression.
As a control cell line, a parasite line expressing an aptamer-regulatable fluorescent protein integrated in the cg6 locus[84] was assayed in parallel. Synchronous ring-stage parasites in the presence (0.5 μM) and absence of aTc were dispensed into 384-well polystyrene microplates (Corning®), and compounds added using the Janus® platform (PerkinElmer). DMSO- and DHA (0.5 μM) served as normalization controls for maximal and minimum signal. Luminescence was measured after 72 h and IC50 values were obtained from normalized dose-response curves using GraphPad Prism Version 8.

[4] = test system: digestive vacuole of functionally isolated 3D7 trophozoites; test: FITC-dextran measurements of DV pH and membrane integrity; as to DV Alkylization: key: -: A '–' indicates a negative finding; a single '+' indicates a positive finding; a double '++' indicates a strong positive finding; format: cell-based, P. falciparum; details: for DV Alkylization: Figure 7A summary; for localization of membrane impermeable dye FITC-dextran (DV membrane leakage): microscopic analysis after 2 h
Description: Preloading of 3D7 parasites with FITC-dextran was done as outlined in Saliba et al.[68] In summary, 2.25 mL of pre-warmed lysis buffer (5 mM HEPES, 11 mM glucose, 2 mM MgCl2, 2 mM ATP, and 110 μM FITC-dextran, pH 7.4) was added to 1 mL of packed RBCs and incubated at 30°C for 10 min. After, 2.25 mL of resealing buffer (280 mM NaCl, 40 mM KCl, 11 mM glucose, and 1 mM HEPES, pH 7.4) was added and cells were pelleted at 1,200 x g for 5 min then washed 3 x in RPMI. FITC-dextran loaded RBCs were then resuspended with 1 mL of synchronous trophozoite stage parasites (10–20%) parasitemia, at 4% hematocrit. Cultures were maintained in 50 mL for a minimum of 2 life cycles, until parasitemia reached >15%.
For assay use, trophozoite stage parasites were functionally isolated as described by van Schalkwyk et al. and Kirk et al. with some modifications.[69]^,[70] Parasites were resuspended in warm media with 0.05% saponin then centrifuged immediately at 2,060 x g for 10 min. Cells were washed in RPMI media 3 x then resuspended in HEPES buffered saline (100 mM KCl, 30 mM NaCl, 2 mM MgCl2, and 5 mM HEPES, pH 7.3) at 5 x 10^6 cells/mL. […] Samples were collected at 0.5, 1, and 2 h for flow cytometry using a CytoFLEX S (Beckman Coulter, Brea, CA), excitation 488 nm, emissions 530 and 585 nm. Gating was performed in FlowJo Version 10 using FITC-dextran loaded and unloaded controls. The ratio (Rgy) of the fluorescent intensity values was then graphed using Graph Pad Prism Version 9. For microscopic analysis, samples were collected after 2 h of treatment and imaged on a Leica TCS SP5 II confocal microscope (Leica Microsystems, Wetzlar, DE.) at excitation 488, emission 520 nm with a 30 nm bandpass filter, then processed with LAS-X software. Significance determined using a one-way ANOVA multiple comparisons test in GraphPad Prism Version 9.0.

[5] = Electrophysiology: reconstitution into planar lipid bilayers; details: for channel activity in planar lipid bilayers: 1 μM peptaibol, DPhPc bilayers, pH 7.0 saline; for Channel Induction: Figure 7A summary; as to Channel Induction: key: -: A '–' indicates a negative finding; a single '+' indicates a positive finding; a double '++' indicates a strong positive finding
Description: Ion channel formation by peptaibols was evaluated with reconstitution into planar lipid bilayers using the Orbit Mini workstation (Nanion). Bilayers were formed from a 5 mg/ml decane solution of 1,2-diphytanoyl-sn-glycero-3-phosphocholine (DPhPc, Avanti Polar Lipids) across 100 μm diameter orifices in the MECA 4 recording chip with 4 microcavities. The bilayers were bathed with saline (in mM: 70 NaCl, 70 KCl, 2.5 MgCl2, 2 CaCl2, 10 HEPES, 10 MES, 10 glucose, pH 7.0) at both faces, with resistances of up to 500 GΩ before channel incorporation. Peptaibols were added from a 10 mM DMSO stock to the cis chamber at a final 1 μM concentration; spontaneous incorporation into the bilayer typically occurred within 10–15 min. Recordings were acquired at 20 kHz and filtered at 1.25 kHz.

[6] = test system: P. berghei liver stage parasites in HepG2 cells; test: High content imaging P. berghei liver stage assay (luciferase 48 HPI, MSP1/AMA1 72 HPI, HepG2 area); format: cell-based; details: for Liver stage inhibition: Figure 7A summary
Description: HepG2 cells infected with luciferase-expressing P. berghei sporozoites were seeded onto compound-loaded 384-well plates 2 hours after sporozoite addition. A live luciferase readout at 48 HPI[62] quantifies compound activity against parasite biomass, while HCI of MSP1 and AMA1 expression at 72 HPI quantifies effects on liver stage maturation and hepatic merozoite formation. Compound effects on hepatocytes are assessed based on HepG2 area occupied in the 72 HPI HCI assay. All data are normalized to in-plate DMSO controls.

[7] = 5 x EC50, isolated trophozoites

Compound	EC50 [1] [nM]	EC50 [2] [nM]	pfMDR1 cKD Sensitivity [3]	shift in sensitivity upon PfMDR1 knockdown [3]	pH dependent fluorescence ratio (FI585/FI530), DV pH, 0.5, 1 or 2 h [4, 7]	DV Alkylization [4]	localization of membrane impermeable dye FITC-dextran (DV membrane leakage) ([4]; 5 x EC50)	channel activity in planar lipid bilayers [5]	Channel Induction [5]	Liver stage inhibition [6]	luciferase inhibition at 48 HPI (liver stage HCI) ([6]; tested at 5 and 0.5 μM)	pH dependent fluorescence ratio (FI585/FI530), DV pH, after 1 h [4, 7]	pH dependent fluorescence ratio (FI585/FI530), DV pH, after 2 h [4, 7]	pH dependent fluorescence ratio (FI585/FI530), DV pH, after 0.5 h [4, 7]
CC[C@H](C)[C@H](NC(=O)[C@H](C)NC(=O)[C@@H]1CCCN1C(=O)C(C)(C)NC(=O)[C@H](CC(C)C)NC(=O)[C@H](CCC(N)=O)NC(=O)[C@@](C)(CC)NC(C)=O)C(=O)NC(C)(C)C(=O)N1CCC[C@H]1C(=O)N[C@](C)(CC)C(=O)N[C@@H](CC(C)C)C(=O)NC(C)(C)C(=O)N1CCC[C@H]1C(=O)N[C@H](CO)CC(C)C [HZ NPDG-H, harzianin NPDG H] (Ac-[dIva]QL[Aib]PAI[Aib]P[dIva]L[Aib]P[Leu(ol)])	690 ± 90	120 ± 10	+	~6 fold	No significant (p > 0.05) change	-	not seen	did not induce detectable channel activity	-	Maturation only				
CC[C@@](C)(NC(=O)C(C)(C)NC(=O)[C@H](CC(C)C)NC(=O)[C@@H]1CCCN1C(=O)C(C)(C)NC(=O)[C@H](CC(C)C)NC(=O)CNC(=O)C(C)(C)NC(=O)[C@@H](NC(=O)C(C)(C)NC(=O)[C@H](CCC(N)=O)NC(=O)C(C)(C)NC(=O)C(C)(C)NC(=O)[C@H](C)NC(=O)CNC(=O)C(C)(C)NC(C)=O)C(C)C)C(=O)N[C@@H](CCC(N)=O)C(=O)N[C@H](CO)CC(C)C [TC HA-II, trichorzin HA II] (Ac-[Aib]GA[Aib][Aib]Q[Aib]V[Aib]GL[Aib]PL[Aib][dIva]Q[Leu(ol)])	2200 ± 270	390 ± 90		no differential sensitivity		++	no longer showed full colocalization of the dye within the DV	did not reveal channel activity	-	Maturation and replication	showed luciferase inhibition			
CC[C@H](C)[C@H](NC(=O)[C@H](CC(C)C)NC(=O)[C@H](CCC(N)=O)NC(=O)[C@@](C)(CC)NC(C)=O)C(=O)NC(C)(C)C(=O)N1CCC[C@H]1C(=O)N[C@](C)(CC)C(=O)N[C@@H](CC(C)C)C(=O)NC(C)(C)C(=O)N1CCC[C@H]1C(=O)N[C@H](CO)CC(C)C [HZ NPDG-I, harzianin NPDG I] (Ac-[dIva]QLI[Aib]P[dIva]L[Aib]P[Leu(ol)])	260 ± 30	120 ± 10	++	43 fold		+	no longer showed full colocalization of the dye within the DV	reproducibly induced unambiguous channel-like activity	+	Maturation only		moderate increase	significant (p = 0.0015) increase	
CC(=O)NC(C)(C)C(=O)N1CCC[C@H]1C(=O)NC(C)(C)C(=O)N[C@@H](C)C(=O)NC(C)(C)C(=O)N[C@@H](C)C(=O)N[C@@H](CCC(N)=O)C(=O)NC(C)(C)C(=O)N[C@H](C(=O)NC(C)(C)C(=O)NCC(=O)N[C@@H](CC(C)C)C(=O)NC(C)(C)C(=O)N1CCC[C@H]1C(=O)N[C@H](C(=O)NC(C)(C)C(=O)NC(C)(C)C(=O)N[C@@H](CCC(=O)O)C(=O)N[C@@H](CCC(N)=O)C(=O)N[C@H](CO)Cc1ccccc1)C(C)C)C(C)C [Alamethicin, reference compound] (Ac-[Aib]P[Aib]A[Aib]AQ[Aib]V[Aib]GL[Aib]PV[Aib][Aib]EQ[Phe(ol)]; N-terminus assumed)		540 ± 30		no differential sensitivity			no longer showed full colocalization of the dye within the DV							Rapid alkalization
